Results on 16 compounds are retold here after PMC5949604.

A short description of this data set: aziridine aldehyde dimer (S-serine-type dimer 3, parent) + tBuNC multicomponent (disrupted Ugi) head-to-tail macrocyclisation of N-terminal Pro peptides; linker inserts CH-CH-N between Pro N and C-terminal C=O (forms Pro N-C bond and C-terminal acyl aziridine N-C(=O) bond). The note with it: the molecule shown is the open-chain precursor, TFE, 100.0 mM.

For the compound `CC(C)C[C@H](NC(=O)CNC(=O)[C@]1(C)CCCN1)C(=O)NCC(=O)N[C@H](Cc1ccccc1)C(=O)O` [H-L-alpha-MePro-Gly-Leu-Gly-D-Phe-OH], for the setting “18-membered ring”, the ring closure, isolated yield was 0%.
Take `CC(C)C[C@H](NC(=O)CNC(=O)C[C@@H]1CCCN1)C(=O)NCC(=O)N[C@H](Cc1ccccc1)C(=O)O` [H-L-beta-homoPro-Gly-Leu-Gly-D-Phe-OH]: the ring closure, isolated yield (19-membered ring) worked out at 0%.
On the same count and under the same terms, under `CC(C)C[C@H](NC(=O)[C@H](COC(C)(C)C)NC(=O)C[C@@H]1CCCN1)C(=O)N[C@@H](Cc1ccc(OC(C)(C)C)cc1)C(=O)N[C@@H](Cc1ccccc1)C(=O)O` [H-L-beta-homoPro-Ser(tBu)-Leu-Tyr(tBu)-Phe-OH] stands 0%.
For the compound `CC(C)C[C@H](NC(=O)[C@H](C)NC(=O)[C@@H]1CCCN1)C(=O)NCC(=O)N[C@@H](Cc1ccccc1)C(=O)O` [H-Pro-Ala-Leu-Gly-Phe-OH], the ring closure, isolated yield (18-membered ring, 4.0 h) turned out to be 12%.
Take `CC(C)C[C@@H](NC(=O)CNC(=O)[C@@H]1CCCN1)C(=O)NCC(=O)N[C@H](CCCCNC(=O)OC(C)(C)C)C(=O)O` [H-Pro-Gly-D-Leu-Gly-D-Lys(Boc)-OH]: the ring closure, isolated yield (18-membered ring, 6.0 h) came to 0%.
`CC(C)C[C@@H](NC(=O)CNC(=O)[C@@H]1CCCN1)C(=O)NCC(=O)N[C@@H](Cc1ccccc1)C(=O)O` [H-Pro-Gly-D-Leu-Gly-Phe-OH]: the ring closure, isolated yield (18-membered ring, 4.0 h) was found to be 28%.
As for `CC(C)C[C@H](NC(=O)CNC(=O)[C@@H]1CCCN1)C(=O)N[C@@H](C)C(=O)N[C@@H](Cc1ccccc1)C(=O)O` [H-Pro-Gly-Leu-Ala-Phe-OH], where the note is “18-membered ring, 6.0 h”, the ring closure, isolated yield is 9%.
As to `CC(C)C[C@H](NC(=O)CNC(=O)[C@@H]1CCCN1)C(=O)NCC(=O)N[C@H](Cc1ccccc1)C(=O)O` [H-Pro-Gly-Leu-Gly-D-Phe-OH], under “18-membered ring, 4.0 h”, the ring closure, isolated yield came to 0%.
Consider `CC(C)C[C@H](NC(=O)CNC(=O)[C@@H]1CCCN1)C(=O)NCC(=O)N[C@@H](CCCCNC(=O)OC(C)(C)C)C(=O)O` [H-Pro-Gly-Leu-Gly-Lys(Boc)-OH], for which the ring closure, isolated yield (18-membered ring, 6.0 h) is 23%.
With `CC(C)C[C@H](NC(=O)CNC(=O)[C@@H]1CCCN1)C(=O)NCC(=O)N[C@@H](Cc1ccccc1)C(=O)O` [H-Pro-Gly-Leu-Gly-Phe-OH], the ring closure, isolated yield (18-membered ring, 4.0 h) came to 34%.
Consider `CC(C)C[C@H](NC(=O)CNC(=O)[C@@H]1CCCN1)C(=O)N[C@@H](CCCCNC(=O)OC(C)(C)C)C(=O)O` [H-Pro-Gly-Leu-Lys(Boc)-OH], for which the ring closure, isolated yield (15-membered ring, 6.0 h) turned out to be 0%.
Turning to `O=C(CNC(=O)[C@@H]1CCCN1)N[C@@H](Cc1ccccc1)C(=O)O` [H-Pro-Gly-Phe-OH], the ring closure, isolated yield (12-membered ring, 4.0 h) is 0%.
In the case of `CC(C)C[C@H](NC(=O)[C@H](CC(C)C)N(C)C(=O)[C@@H]1CCCN1)C(=O)NCC(=O)N[C@@H](Cc1ccccc1)C(=O)O` [H-Pro-N-Me-Leu-Leu-Gly-Phe-OH], the ring closure, isolated yield (18-membered ring) amounted to 0%.
As to `CC(C)C[C@H](NC(=O)CN(C)C(=O)[C@@H]1CCCN1)C(=O)NCC(=O)N[C@@H](Cc1ccccc1)C(=O)O` [H-Pro-Sar-Leu-Gly-Phe-OH], the ring closure, isolated yield (18-membered ring) amounted to 0%.
Regarding `CC(C)C[C@H](NC(=O)[C@H](COC(C)(C)C)NC(=O)[C@@H]1CCCN1)C(=O)NCC(=O)N[C@@H](Cc1ccccc1)C(=O)O` [H-Pro-Ser(tBu)-Leu-Gly-Phe-OH], for the setting “18-membered ring, 4.0 h”, the ring closure, isolated yield worked out at 49%.
Regarding `CC(C)C[C@H](NC(=O)[C@H](COC(C)(C)C)NC(=O)[C@@H]1CCCN1)C(=O)N[C@@H](Cc1ccc(OC(C)(C)C)cc1)C(=O)N[C@@H](Cc1ccccc1)C(=O)O` [H-Pro-Ser(tBu)-Leu-Tyr(tBu)-Phe-OH], the ring closure, isolated yield (18-membered ring, 4.0 h) is 22%.
